US20120107333A1, “VANGL1 PEPTIDES AND VACCINES INCLUDING THE SAME” (Oncotherapy Science, Inc., priority 2009, published 2012)
Non-standard residues stand in square brackets, D forms with d. No end group written: not given here.

system: peptide-pulsed A24LCL cells; test: IFN-gamma ELISPOT assay on CTLs induced with VANGL1 peptides; assay type: cell-based, human; conditions: CTLs from HLA-A*2402 positive donor after 3rd peptide stimulation, day 21; compared to the control wells
From the text: (§1) Monocyte-derived dendritic cells (DCs) were used as antigen-presenting cells (APCs) to induce cytotoxic T lymphocyte (CTL) responses against peptides presented on human leukocyte antigen (HLA). DCs were generated in vitro as described elsewhere (Nakahara S et al., Cancer Res 2003 Jul. 15, 63(14): 4112-8). Specifically, peripheral blood mononuclear cells (PBMCs) isolated from a normal volunteer (HLA-A*2402 positive) by Ficoll-Plaque (Pharmacia) solution were separated by adherence to a plastic tissue culture dish (Becton Dickinson) so as to enrich them as the monocyte fraction. The monocyte-enriched population was cultured in the presence of 1,000 U/ml of granulocyte-macrophage colony-stimulating factor (GM-CSF) (R&D System) and 1,000 U/ml of interleukin (IL)-4 (R&D System) in AIM-V Medium (Invitrogen) containing 2% heat-inactivated autologous serum (AS). After 7 days of culture, the cytokine-induced DCs were pulsed with 20 micro-g/ml of each of the synthesized peptides in the presence of 3 micro-g/ml of beta 2-microglobulin for 3 hrs at 37 degrees C. in AIM-V Medium. The generated cells appeared to express DC-associated molecules, such as CD80, CD83, CD86 and HLA class II, on their cell surfaces (data not shown). These peptide-pulsed DCs were then inactivated by X-irradiation (20 Gy) and mixed at a 1:20 ratio with autologous CD8+ T cells, obtained by positive selection with CD8 Positive Isolation Kit (Dynal). These cultures were set up in 48-well plates (Corning); each well contained 1.5×10^4 peptide-pulsed DCs, 3×10^5 CD8+ T cells and 10 ng/ml of IL-7 (R&D System) in 0.5 ml of AIM-V/2% AS medium. Three days later, these cultures were supplemented with IL-2 (CHIRON) to a final concentration of 20 IU/ml. On days 7 and 14, the T cells were further stimulated with the autologous peptide-pulsed DCs. The DCs were prepared each time by the same way described above. CTL was tested against peptide-pulsed A24LCL cells after the 3rd round of peptide stimulation on day 21 (Tanaka H et al., Br J Cancer 2001 Jan. 5, 84(1): 94-9; Umano Y et al., Br J Cancer 2001 Apr. 20, 84(8): 1052-7; Uchida N et al., Clin Cancer Res 2004 Dec. 15, 10(24): 8577-86; Suda T et al., Cancer Sci 2006 May, 97(5): 411-9; Watanabe T et al., Cancer Sci 2005 August, 96(8): 498-506).
(§2) To examine specific CTL activity, interferon (IFN)-gamma enzyme-linked immunospot (ELISPOT) assay and IFN-gamma enzyme-linked immunosorbent assay (ELISA) were performed. Specifically, peptide-pulsed A24LCL (1×10^4/well) was prepared as stimulator cells. Cultured cells in 48 wells were used as responder cells. IFN-gamma ELISPOT assay and IFN-gamma ELISA assay were performed under manufacture procedure.

Substance	Peptide specific CTL activity: IFN-gamma production (ELISPOT)
HYLAiVLLEL (HYLA[code i]VLLEL) [SEQ ID NO: 18]	potent IFN-gamma production
LFVVSYWLF [SEQ ID NO: 12]	potent IFN-gamma production
DFTIyNPNLL (DFTI[code y]NPNLL) [SEQ ID NO: 26]	potent IFN-gamma production
RYLSAGPTL [SEQ ID NO: 1]	potent IFN-gamma production
VFRALLLVL [SEQ ID NO: 9]	potent IFN-gamma production
VELTpIAFIL [SEQ ID NO: 22]	potent IFN-gamma production
RYLGLTVAS [SEQ ID NO: 11]	potent IFN-gamma production
VFVFRALLL [SEQ ID NO: 8]	potent IFN-gamma production
LFISmAFKLL (LFIS[code m]AFKLL) [SEQ ID NO: 25]	potent IFN-gamma production
NYQGiVQYAV (NYQG[code i]VQYAV) [SEQ ID NO: 32]	potent IFN-gamma production
LFIHyLAIVL (LFIH[code y]LAIVL) [SEQ ID NO: 24]	potent IFN-gamma production

system: target cells pulsed peptide; test: IFN-gamma ELISA assay of CTL clones established by limiting dilution; assay type: cell-based, human; conditions: CTL clones against target cells pulsed peptide
Method: The dilutions were made to have 0.3, 1, and 3 CTLs/well in 96 round-bottomed micro titer plate (Nalge Nunc International). CTLs were cultured with 1×10^4 cells/well of 2 kinds of human B-lymphoblastoid cell lines, 30 ng/ml of anti-CD3 antibody, and 125 U/ml of IL-2 in a total of […] of AIM-V Medium containing 5% AS. 50 micro-Dwell of IL-2 were added to the medium 10 days later so to reach a final concentration of 125 U/ml IL-2. CTL activity was tested on the 14th day, and CTL clones were expanded using the same method as described above (Uchida N et al., Clin Cancer Res 2004 Dec. 15, 10(24): 8577-86; Suda T et al., Cancer Sci 2006 May, 97(5): 411-9; Watanabe T et al., Cancer Sci 2005 August, 96(8): 498-506).
as §2

Substance	IFN-gamma production from CTL clones (ELISA)
HYLAiVLLEL (HYLA[code i]VLLEL) [SEQ ID NO: 18]	Potent IFN-gamma productions
VELTpIAFIL [SEQ ID NO: 22]	Potent IFN-gamma productions
VFVFRALLL [SEQ ID NO: 8]	Potent IFN-gamma productions
LFIHyLAIVL (LFIH[code y]LAIVL) [SEQ ID NO: 24]	Potent IFN-gamma productions

system: peptide-pulsed A24LCL cells; test: IFN-gamma ELISA assay of established CTL lines; assay type: cell-based, human; conditions: target cells pulsed with corresponding peptide vs target cells without peptide pulse
From the text: as §1
CTLs were expanded in culture using the method similar to the one described by Riddell et al. (Walter E A et al., N Engl J Med 1995 Oct. 19, 333(16): 1038-44; Riddell S R et al., Nat Med 1996 February, 2(2): 216-23). A total of 5×10^4 CTLs were suspended in 25 ml of AIM-V/5% AS medium with 2 kinds of human B-lymphoblastoid cell lines, inactivated by Mitomycin C, in the presence of 40 ng/ml of anti-CD3 monoclonal antibody (Pharmingen). One day after initiating the cultures, 120 IU/ml of IL-2 were added to the cultures. The cultures were fed with fresh AIM-V/5% AS medium containing 30 IU/ml of IL-2 on days 5, 8 and 11 (Tanaka H et al., Br J Cancer 2001 Jan. 5, 84(1): 94-9; Umano Y et al., Br J Cancer 2001 Apr. 20, 84(8): 1052-7; Uchida N et al., Clin Cancer Res 2004 Dec. 15, 10(24): 8577-86; Suda T et al., Cancer Sci 2006 May, 97(5): 411-9; Watanabe T et al., Cancer Sci 2005 August, 96(8): 498-506).
as §2

Substance	CTL activity of CTL lines: IFN-gamma production (ELISA)
HYLAiVLLEL (HYLA[code i]VLLEL) [SEQ ID NO: 18]	potent IFN-gamma production
LFVVSYWLF [SEQ ID NO: 12]	potent IFN-gamma production
RYLSAGPTL [SEQ ID NO: 1]	potent IFN-gamma production
VFRALLLVL [SEQ ID NO: 9]	potent IFN-gamma production
VELTpIAFIL [SEQ ID NO: 22]	potent IFN-gamma production
RYLGLTVAS [SEQ ID NO: 11]	potent IFN-gamma production
VFVFRALLL [SEQ ID NO: 8]	potent IFN-gamma production
LFISmAFKLL (LFIS[code m]AFKLL) [SEQ ID NO: 25]	potent IFN-gamma production
NYQGiVQYAV (NYQG[code i]VQYAV) [SEQ ID NO: 32]	potent IFN-gamma production
LFIHyLAIVL (LFIH[code y]LAIVL) [SEQ ID NO: 24]	potent IFN-gamma production

system: COS7 cells transfected with VANGL1 and HLA-A*2402; test: Specific CTL activity against target cells exogenously expressing VANGL1 and HLA-A*2402; assay type: cell-based, African green monkey; conditions: COS7 cells expressing both VANGL1 and HLA-A*2402
From the text: The cDNA encoding an open reading frame of target genes or HLA-A*2402 was amplified by PCR. The PCR-amplified product was cloned into pCAGGS vector. The plasmids were transfected into COS7, which is the target genes and HLA-A24-negative cell line, using lipofectamine 2000 (Invitrogen) according to the manufacturer's recommended procedures. After 2 days from transfection, the transfected cells were harvested with versene (Invitrogen) and used as the target cells (5×10^4 cells/well) for CTL activity assay.
The established CTL lines raised against these peptides were examined for their ability to recognize target cells that endogenously express VANGL1 and HLA-A*2402 molecule. Specific CTL activity against COS7 cells which transfected with both the full length of VANGL1 and HLA-A*2402 molecule gene (a specific model for the target cells that exogenously express VANGL1 and HLA-A*2402 gene) was tested using the CTL lines raised by corresponding peptide as the effecter cells. COS7 cells transfected with either full length of VANGL1 genes or HLA-A* 2402 were prepared as controls.

Substance	Specific CTL activity
RYLSAGPTL [SEQ ID NO: 1]	potent CTL activity

same assay, conditions: controls: COS7 cells transfected with either full length VANGL1 or HLA-A*2402

Substance	Specific CTL activity
RYLSAGPTL [SEQ ID NO: 1]	no significant specific CTL activity
